Reference: patent publication US20220298098A1, “HALOGENATED COMPOUNDS, PROCESS AND USES THEREOF” (Ciimar - Centro Interdisciplinar De Investigaçäo Marinha E …, priority 2019, published 2022)
Converted amounts (≈) assume the structure as drawn. Read-outs that look alike come from different tables or passages of the source. Each block holds one molecule with its values, some of them ahead of it.

Legend:
[1] = system: coagulase-negative staphylococci; test: Biofilm formation inhibition, quantification of total biomass by violet crystal staining; format: cell-based; settings: for IC50: read-out: calculated concentration that inhibits the biofilm formation by 50%
Protocol: The biofilm forming ability of coagulase-negative staphylococci, when exposed to compounds 1, 2, 9 and 16, was assessed by quantification of total biomass by violet crystal staining.

[2] = system: Staphylococcus aureus S54F9; test: Broth microdilution antibiotic susceptibility test; format: cell-based
Protocol: The methanolic extract was submitted to solid phase extraction (Waters Sep-Pak® Vac 35 cc 10 g C18 Cartridges) using mixtures of water/methanol (4:1 to 1:4; 4 to 8 column volumes each), yielding an enriched fraction free of chlorophylls and other pigments. The fraction was then chromatographed using semi-preparative HPLC conditions with a gradient of water/acetonitrile 19:1 to 0:1 (both with 0.1% of formic acid) as mobile phase. Fractions were collected every 30 s (total run time of 70 min) and 140 fractions were collected into 96-well deep well plates, and a 25% of a 67 mg 140-well fractionation was tested against Staphylococcus aureus S54F9. In order to carry out this broth microdilution antibiotic susceptibility test, 50 μL of each HPLC fraction resuspended in 14% MeOH in water were mixed with 50 μL of the S. aureus suspension at 10^6 CFU/mL in 2×MHB in a microtiter plate (final desired inoculum=5·10^5 CFU/mL, final concentration of MeOH in bioassay plate=7%, final volume per well=100 μL). The microtiter plate was replicated onto a selective/differential solid medium (Manitol Salt Agar) in order to distinguish between bacteriostatic and bactericidal activities. Growth controls (broth with bacterial inoculum, no bioactive molecule) as well as sterility (broth only) and solvent controls (broth with 7% MeOH in water) were included.

[3] = coagulase-negative staphylococci biofilm
[4] = S54F9, calculated from the antibiotic activities of the fractions in FIG. 1, range across compounds 1, 2, 9 and 16, read-out: predicted minimal inhibitory concentrations (MICs) against S. aureus

IC50 [1, 3]: 55.1 µg/mL (≈ 180 µM) | MIC [2, 4]: 1790 to 5790 µg/mL (≈ 5830 to 18900 µM)
Compound: C[C@H](OC(=O)CCCCCCCCCCCCl)C(=O)O [Compound 1, (S)-2-[(12-chlorododecanoyl)oxy]propanoic acid]
inhibition at 70 µg/mL ([1]; biofilm formation, 70 mg/L): 0% | inhibition at 140 µg/mL ([1]; biofilm formation, 140 mg/L): 74%

IC50 [1, 3]: 94.6 µg/mL (≈ 308 µM) | MIC [2, 4]: 1790 to 5790 µg/mL (≈ 5830 to 18900 µM)
Compound: CCCCCCC(Cl)CCCCC(=O)O[C@@H](C)C(=O)O (stereo partly drawn) [Compound 2, (S)-2-[(6-chlorododecanoyl)oxy]propanoic acid]
inhibition at 16 µg/mL ([1]; biofilm formation, 16 mg/L): 0% | inhibition at 32.12 µg/mL ([1]; biofilm formation, 32.12 mg/L): 31% | inhibition at 64.25 µg/mL ([1]; biofilm formation, 64.25 mg/L): 74% | inhibition at 128.5 µg/mL ([1]; biofilm formation, 128.5 mg/L): 89% | inhibition at 257 µg/mL ([1]; biofilm formation, 257 mg/L): 90%

IC50 [1, 3]: 20.1 µg/mL (≈ 58.9 µM) | MIC [2, 4]: 1790 to 5790 µg/mL (≈ 5250 to 17000 µM)
Compound: C[C@H](OC(=O)CCCCC(Cl)CCCCCCCl)C(=O)O (stereo partly drawn) [Compound 9, (S)-2-[(6,12-dichlorododecanoyl)oxy]propanoic acid]
inhibition at 5.65 µg/mL ([1]; biofilm formation, 5.65 mg/L): 0% | inhibition at 11.25 µg/mL ([1]; biofilm formation, 11.25 mg/L): 22% | inhibition at 22.5 µg/mL ([1]; biofilm formation, 22.5 mg/L): 56% | inhibition at 35 µg/mL ([1]; biofilm formation, 35 mg/L): 62% | inhibition at 90 µg/mL ([1]; biofilm formation, 90 mg/L): 66% | inhibition at 180 µg/mL ([1]; biofilm formation, 180 mg/L): 76% | inhibition at 360 µg/mL ([1]; biofilm formation, 360 mg/L): 87% | inhibition at 721 µg/mL ([1]; biofilm formation, 721 mg/L): 88%

Compound: C[C@H](OC(=O)CCCCC(Cl)CCCCCC(Cl)Cl)C(=O)O (stereo partly drawn) [Compound 16, (S)-2-[(6,12,12-trichlorododecanoyl)oxy]propanoic acid]
inhibition at 37.5 µg/mL [1]: 0% | inhibition at 75 µg/mL [1]: 68% | inhibition at 150 µg/mL [1]: 71% | IC50 [1]: 43.4 µg/mL (≈ 116 µM) | MIC ([2]; S54F9, read-out: predicted minimal inhibitory concentrations (MICs) against S. aureus): 1790 to 5790 µg/mL (≈ 4760 to 15400 µM)
